System: yeast genes (level of expressed mRNA)
Assay: DNA chip analysis of expressed mRNA of yeast genes after 2 h culture with a toxic chemical substance
Assay type: cell-based, Saccharomyces cerevisiae S288C
Description: Yeast (Saccharomyces cerevtisiae S288C (α SUC2mal mel gap2 CUP1)) were cultured at 25° C. on YPD medium (yeast extract 1%, polypepton 2%, glucose 2%). One of toxic chemical substances was added to the cell at logarithmic growth phase, and the cell was further cultured for two hours. Cell was cultured without any chemical substance in the same condition, and was used as control. Concentrations of the chemical substances were defined to inhibit the growth of the yeast but not lead to death.
After the completion of cultivation, the culture was centrifuged to collect the cells. To the cells, sodium acetate buffer (50 mM sodium acetate, 10 mM EDTA, 1% SDS) was added, and the mixture was shaken at 65° C. for five minutes, followed by returning to room temperature, and obtaining the supernatant, which procedure was repeated two times. To the supernatant, ½ amount of a solution of phenol/chloroform was added, and the mixture was centrifuged to give a supernatant, which was added with an equal amount of chloroform, and the mixture was centrifuged to give a supernatant. To the supernatant, an equal amount of isopropanol containing 0.3 M sodium acetate was added, and the mixture was allowed to stand at room temperature for 30 minutes, after which the mixture was centrifuged to give a sediment of the whole RNAs. Seventy % ethanol was added to the sediment, and the mixture was again centrifuged to give a sediment, which was then dried and dissolved in water. mRNA was isolated from the whole RNAs as followings. In view of the fact that a poly A chain is attached to the 3′ terminus of mRNA, a polynucleotide having a poly T structure which was immobilized on the surface of latex beads was used to trap the mRNA, and then the mRNA was washed and eluted with spine column (Oligotex-dT30<Super>mRNA Purification Kit, Takara). Reverse transcription of the mRNA was conducted with a reverse transcriptase (Super Script II Reverse Transcriptase; catalogue No. 18064-014, GibcoBRL) using fluorescence-labeled nucleotides to give cDNAs that were introduced with Cy3-dUTP or Cy5-dUTP during the reverse transcription.
The labeled cDNAs were dissolved in TE buffer (10 mM Tris-HCl/1 mM EDTA, pH8.0), and the solution was dropped on the DNA chip containing the whole genes of yeast (DNA Chip Research Inc. Japan) so that the cDNAs were hybridized on the DNA chip at 65° C. for over 12 hours. The fluoresces intensity of the DNA chip was read with a scanner, and the ratio relative to the fluorescence intensity resulting from the absence of chemical substance was estimated as the following, which is shown in Tables 1 to 9: [formula]
In the Tables, “Intensity” indicated in the rightmost column is a value of the level of expressed mRNA of each gene in control cells as divided by the average level of the expressions of the whole genes.

In the case of `N#Cc1c(Cl)c(Cl)c(Cl)c(C#N)c1Cl` [(9), 2,4,5,6-tetrachloro-1,3-benzenedicarbonitrile], the “The level of expressed mRNA in the presence of chemical substance/The level of expressed mRNA in the absence of chemical substance” value (yeast gene YAR010C) is reported as 1.2, the “The level of expressed mRNA in the presence of chemical substance/The level of expressed mRNA in the absence of chemical substance” value (yeast gene YBL005W-A) is reported as 0.8 and the “The level of expressed mRNA in the presence of chemical substance/The level of expressed mRNA in the absence of chemical substance” value (yeast gene YBL041W) is reported as 2.8. The “The level of expressed mRNA in the presence of chemical substance/The level of expressed mRNA in the absence of chemical substance” value (yeast gene YBL043W) was 0.5, the “The level of expressed mRNA in the presence of chemical substance/The level of expressed mRNA in the absence of chemical substance” value (yeast gene YBL078C) was 12.3 and the “The level of expressed mRNA in the presence of chemical substance/The level of expressed mRNA in the absence of chemical substance” value (yeast gene YBR214W) was 2.2. For the same compound, the “The level of expressed mRNA in the presence of chemical substance/The level of expressed mRNA in the absence of chemical substance” value (yeast gene YCL020W) was 0.9, the “The level of expressed mRNA in the presence of chemical substance/The level of expressed mRNA in the absence of chemical substance” value (yeast gene YCL027W) was 0.7 and the “The level of expressed mRNA in the presence of chemical substance/The level of expressed mRNA in the absence of chemical substance” value (yeast gene YCR004C) was 4.7. The “The level of expressed mRNA in the presence of chemical substance/The level of expressed mRNA in the absence of chemical substance” value (yeast gene YCR071C) was 0.6, the “The level of expressed mRNA in the presence of chemical substance/The level of expressed mRNA in the absence of chemical substance” value (yeast gene YCR088W) was 0.8 and the “The level of expressed mRNA in the presence of chemical substance/The level of expressed mRNA in the absence of chemical substance” value (yeast gene YDL008W) was 2.3. The “The level of expressed mRNA in the presence of chemical substance/The level of expressed mRNA in the absence of chemical substance” value (yeast gene YDL238C) was 1.7, the “The level of expressed mRNA in the presence of chemical substance/The level of expressed mRNA in the absence of chemical substance” value (yeast gene YDR055W) was 0.8 and the “The level of expressed mRNA in the presence of chemical substance/The level of expressed mRNA in the absence of chemical substance” value (yeast gene YDR084C) was 0.6. The “The level of expressed mRNA in the presence of chemical substance/The level of expressed mRNA in the absence of chemical substance” value (yeast gene YDR085C) was 0.4, the “The level of expressed mRNA in the presence of chemical substance/The level of expressed mRNA in the absence of chemical substance” value (yeast gene YDR104C) was 2.8 and the “The level of expressed mRNA in the presence of chemical substance/The level of expressed mRNA in the absence of chemical substance” value (yeast gene YDR115W) was 1.1. The “The level of expressed mRNA in the presence of chemical substance/The level of expressed mRNA in the absence of chemical substance” value (yeast gene YDR259C) was 1.0, the “The level of expressed mRNA in the presence of chemical substance/The level of expressed mRNA in the absence of chemical substance” value (yeast gene YDR315C) was 1.1 and the “The level of expressed mRNA in the presence of chemical substance/The level of expressed mRNA in the absence of chemical substance” value (yeast gene YDR358W) was 2.9. The “The level of expressed mRNA in the presence of chemical substance/The level of expressed mRNA in the absence of chemical substance” value (yeast gene YDR388W) was 1.4, the “The level of expressed mRNA in the presence of chemical substance/The level of expressed mRNA in the absence of chemical substance” value (yeast gene YDR432W) was 0.7 and the “The level of expressed mRNA in the presence of chemical substance/The level of expressed mRNA in the absence of chemical substance” value (yeast gene YDR481C) was 1.9. The “The level of expressed mRNA in the presence of chemical substance/The level of expressed mRNA in the absence of chemical substance” value (yeast gene YDR510W) was 2.7, the “The level of expressed mRNA in the presence of chemical substance/The level of expressed mRNA in the absence of chemical substance” value (yeast gene YEL042W) was 0.2 and the “The level of expressed mRNA in the presence of chemical substance/The level of expressed mRNA in the absence of chemical substance” value (yeast gene YEL066W) was 1.3. The “The level of expressed mRNA in the presence of chemical substance/The level of expressed mRNA in the absence of chemical substance” value (yeast gene YER039C) was 1.2, the “The level of expressed mRNA in the presence of chemical substance/The level of expressed mRNA in the absence of chemical substance” value (yeast gene YER107C) was 0.4 and the “The level of expressed mRNA in the presence of chemical substance/The level of expressed mRNA in the absence of chemical substance” value (yeast gene YER130C) was 0.5. For the same compound, the “The level of expressed mRNA in the presence of chemical substance/The level of expressed mRNA in the absence of chemical substance” value (yeast gene YFL028C) was 2.7, the “The level of expressed mRNA in the presence of chemical substance/The level of expressed mRNA in the absence of chemical substance” value (yeast gene YFL043C) was 2.2 and the “The level of expressed mRNA in the presence of chemical substance/The level of expressed mRNA in the absence of chemical substance” value (yeast gene YGL229C) was 1.8. The “The level of expressed mRNA in the presence of chemical substance/The level of expressed mRNA in the absence of chemical substance” value (yeast gene YGR136W) was 2.1, the “The level of expressed mRNA in the presence of chemical substance/The level of expressed mRNA in the absence of chemical substance” value (yeast gene YGR189C) was 0.3 and the “The level of expressed mRNA in the presence of chemical substance/The level of expressed mRNA in the absence of chemical substance” value (yeast gene YGR213C) was 7.5. For the same compound, the “The level of expressed mRNA in the presence of chemical substance/The level of expressed mRNA in the absence of chemical substance” value (yeast gene YGR257C) was 1.5, the “The level of expressed mRNA in the presence of chemical substance/The level of expressed mRNA in the absence of chemical substance” value (yeast gene YHR004C) was 1.1 and the “The level of expressed mRNA in the presence of chemical substance/The level of expressed mRNA in the absence of chemical substance” value (yeast gene YHR071W) was 1.0. The “The level of expressed mRNA in the presence of chemical substance/The level of expressed mRNA in the absence of chemical substance” value (yeast gene YHR139C) was 107.2, the “The level of expressed mRNA in the presence of chemical substance/The level of expressed mRNA in the absence of chemical substance” value (yeast gene YHR142W) was 0.4 and the “The level of expressed mRNA in the presence of chemical substance/The level of expressed mRNA in the absence of chemical substance” value (yeast gene YIL123W) was 0.1. The “The level of expressed mRNA in the presence of chemical substance/The level of expressed mRNA in the absence of chemical substance” value (yeast gene YIL140W) was 0.7, the “The level of expressed mRNA in the presence of chemical substance/The level of expressed mRNA in the absence of chemical substance” value (yeast gene YJL073W) was 1.7 and the “The level of expressed mRNA in the presence of chemical substance/The level of expressed mRNA in the absence of chemical substance” value (yeast gene YJL089W) was 1.6. For the same compound, the “The level of expressed mRNA in the presence of chemical substance/The level of expressed mRNA in the absence of chemical substance” value (yeast gene YJL116C) was 2.4, the “The level of expressed mRNA in the presence of chemical substance/The level of expressed mRNA in the absence of chemical substance” value (yeast gene YJR004C) was 0.3 and the “The level of expressed mRNA in the presence of chemical substance/The level of expressed mRNA in the absence of chemical substance” value (yeast gene YJR086W) was 1.4. For the same compound, the “The level of expressed mRNA in the presence of chemical substance/The level of expressed mRNA in the absence of chemical substance” value (yeast gene YKL008C) was 0.3 and the “The level of expressed mRNA in the presence of chemical substance/The level of expressed mRNA in the absence of chemical substance” value (yeast gene YKL013C) was 1.5.
